The nature of this data set: in vitro. The following applies: human, hela cells, % viability.

The results in this text go back to paper PMC12040169 (PLOS Biology, 2025).

For orientation: viability means a read-out of living cells in per cent, often relative to untreated cells. Regarding `COc1ccc(C(C)C)cc1-c1ccnc2[nH]c(=O)ccc12` [CBK073735], the viability at 28.5 h, 10 µM worked out at 102%.

`C=CCc1ccc(OCC(=O)NN)c(OC)c1` [CBK261831]: the viability at 28.5 h, 10 µM came out at 97.5%.

On to `COc1ccc(OC(=O)Nc2nn(Cc3ccc(C#N)cc3)c3ccc(C)cc23)cc1` [CBK048654], for which the viability at 28.5 h, 10 µM (bulk resorufin, single well) is 74.4%.

For the molecule `O=C(O)c1cc(NC(=O)c2ccco2)cc(NC(=O)c2ccco2)c1` [CBK263388], the viability at 28.5 h, 10 µM was determined as 91.8%.

Take `C[N+](C)(C)C1=C([O-])c2ccccc2C1=O` [CBK009824]: the viability at 28.5 h, 10 µM was determined as 92.7%.

Regarding `Cc1nc(-c2ccccc2)sc1C(=O)C1=C(O)C(=O)N(CCN2CCOCC2)C1c1cccs1` (stereo not shown) [CBK266520], the viability at 28.5 h, 10 µM stood at 102%.

`O=C1/C(=C/c2c(NCCCn3ccnc3)nc3ccccn3c2=O)SC(=S)N1CC1CCCO1` (stereo not shown) [CBK111310]: the viability at 28.5 h, 10 µM is 99.3%.

`Cc1cccc(CNc2nccnc2-c2ccncc2)c1` [CBK037453]: the viability at 28.5 h, 10 µM turned out to be 99.3%.

Consider `COC(=O)Nc1ccc(S(=O)(=O)N2CCCC(C(=O)Nc3cccc(C(F)(F)F)c3)C2)cc1` (stereo not shown) [CBK265248], for which the viability at 28.5 h, 10 µM turned out to be 92.3%.

In the case of `O=C(Cc1c[nH]cn1)N1CCC2(CCN(Cc3ccccc3)C2)C1` (stereo not shown) [CBK137147], the viability at 28.5 h, 10 µM is 91%.

`CCN(Cc1cncn1C)C(CC1CCCCC1)c1ccccc1` (stereo not shown) [CBK066815T]: the viability at 28.5 h, 10 µM worked out at 122%.

On to `CCS(=O)(=O)NC1CC(C)(C)Cc2c1cnn2-c1ccc(OC)cc1` (stereo not shown) [CBK306656], for which the viability at 28.5 h, 10 µM was 116%.

As for `Nc1nnc(Sc2nc3ccccc3nc2C(F)(F)F)s1` [CBK093795], the viability at 28.5 h, 10 µM is 94.6%.

`O=C(O)c1cccc(N(CCO)CCO)c1` [CBK262419]: the viability at 28.5 h, 10 µM turned out to be 93.6%.

Take `Cc1cc(/C=C(/C#N)c2nc3ccccc3[nH]2)c(C)n1-c1ccc(N2CCOCC2)cc1` [CBK263792]: the viability at 28.5 h, 10 µM is 94%.

On to `COC(=O)CCCC(=O)n1ccn(CCc2cccs2)c1=O` [CBK106612], for which the viability at 28.5 h, 10 µM is 92%.

In the case of `Cc1nn(-c2ccc3nnc(C)n3n2)c2c1C(c1ccccc1F)CC(=O)N2` (stereo not shown) [CBK287898], the viability at 28.5 h, 10 µM was 83.3%.

Take `CC(C)CCN(C)C(=O)c1cccc(S(=O)(=O)NCc2ccsc2)c1` [CBK307656]: the viability at 28.5 h, 10 µM worked out at 110%.

Take `Cc1ccc(S(=O)(=O)N(CCC#N)CCN2CCCC2)cc1` [CBK028055]: the viability at 28.5 h, 10 µM was 119%.

In the case of `CCOC(=O)c1c(NC(=O)Cn2cnc([N+](=O)[O-])n2)sc2c1CCC2` [CBK263042], the viability at 28.5 h, 10 µM was found to be 92.5%.

As to `CCOc1ccccc1N1CCN(C(=O)c2cc(-c3ccccc3C)nc3ccccc23)CC1` [CBK091950], the viability at 28.5 h, 10 µM worked out at 104%.

On to `CN1CCN(c2ccc(NC(=S)NC(=O)c3cc(Br)ccc3Cl)cc2)CC1` [CBK266254C], for which the viability at 28.5 h, 10 µM worked out at 96.2%.

For `CCCCc1nccn1CCn1ccnc1CCCC` [CBK020437], the viability at 28.5 h, 10 µM is 88.7%.

With `CCn1nc(C(C)C)cc1C(=O)NCCN1CCC(C)CC1` [CBK282107], the viability at 28.5 h, 10 µM was 85.6%.

As for `Cc1n[nH]c(C)c1C1COCCN1C(=O)c1cccc(F)c1` (stereo not shown) [CBK305105], the viability at 28.5 h, 10 µM worked out at 86.9%.

As for `COc1ccc(-c2cnc(N)c(NCCCN3CCOCC3)n2)c(OC)c1OC` [CBK063676], the viability at 28.5 h, 10 µM was found to be 113%.

For `CC(C)Oc1ccc(C(=O)N2CCN(c3ccccc3)CC2)cc1` [CBK305847], the viability at 28.5 h, 10 µM came to 83.5%.

`C[S+]([O-])CCC(NS(=O)(=O)c1ccccc1)C(=O)O` (stereo not shown) [CBK268267]: the viability at 28.5 h, 10 µM is 93.2%.

For the molecule `Cc1ccc(CN(CCCN(C)C)Cc2cccc(O)c2)o1` [CBK283173], the viability at 28.5 h, 10 µM was 108%.

Turning to `Cn1c(=O)c(C(=O)Nc2ccc(OCc3ccccc3F)cc2)nc2ccccc21` [CBK285820], the viability at 28.5 h, 10 µM came out at 103%.

Turning to `CC12CN3CC(C)(CN(C1)C3c1ccc(Br)cc1)C2=O` (stereo not shown) [CBK261452], the viability at 28.5 h, 10 µM came out at 92.1%.

For the molecule `O=C(O)CC1S/C(=N/N=C/c2cn(Cc3ccccc3)c3ccccc23)NC1=O` (stereo not shown) [CBK264466], the viability at 28.5 h, 10 µM stood at 102%.

With `Ic1cnn(Cc2nc(-c3ccc4c(c3)OCO4)no2)c1` [CBK270050], the viability at 28.5 h, 10 µM is 106%.

As for `COC(=O)c1c(NC(=S)N2CCN(Cc3c(C)nn(C)c3C)CC2)sc2c1CCC(C)C2` (stereo not shown) [CBK267103], the viability at 28.5 h, 10 µM came to 94.9%.

With `Cc1ncccc1-c1cc2cccnc2n1CCCNC(=O)C1CC1` [CBK282687], the viability at 28.5 h, 10 µM was 81.5%.

Regarding `CCOC(=O)N1CCN(C(=O)c2c(C)nn(C)c2Cl)CC1` [CBK304522], the viability at 28.5 h, 10 µM stood at 92.6%.

On to `CNC(=O)CN1CC[C@H]2NC(=O)c3ccccc3OCC/C=C/C[C@H]2C1` [CBK292049], for which the viability at 28.5 h, 10 µM stood at 110%.

For the molecule `O=C(COc1ccc2ccccc2c1)Nc1cc([N+](=O)[O-])ccc1F` [CBK263780], the viability at 28.5 h, 10 µM stood at 92.8%.

As for `CSCCN1CCC(Oc2nccnc2OCC2COc3ccccc3O2)CC1` (stereo not shown) [CBK082996T], the viability at 28.5 h, 10 µM worked out at 92.7%.

On to `COc1ccc2c(c1)CCC1(C)C2=C(C(=O)O)CC1O` (stereo not shown) [CBK022814], for which the viability at 28.5 h, 10 µM stood at 103%.

Regarding `O=C(O)CCNC1=Nc2ccccc2CCC1` [CBK278160], the viability at 28.5 h, 10 µM was 101%.

For the molecule `Cc1cc(C)nc(NC(=O)C2C3C=CC(C3)C2C(=O)O)c1` (stereo not shown) [CBK058843], the viability at 28.5 h, 10 µM was 104%.

On to `O=S(=O)(Cc1ccc(Cl)cc1Cl)N1CCOCC1` [CBK058967], for which the viability at 28.5 h, 10 µM came to 78.1%.

For the molecule `c1cc2c(cc1-c1ccc3c(c1)OCO3)COC1(CCNCC1)O2` [CBK060925], the viability at 28.5 h, 10 µM (bulk resorufin, single well) was found to be 95.9%.

`O=S(=O)(Nc1ccc(C(O)(C(F)(F)F)C(F)(F)F)cc1)c1csc2ccccc12` [CBK062098]: the viability at 28.5 h, 10 µM was determined as 85.4%.

Regarding `Oc1cc(CCc2ccc(F)cc2)nc2ccnn12` [CBK281876], the viability at 28.5 h, 10 µM worked out at 88.9%.

Consider `COc1ccc(-c2nc3cc(NC(=O)c4ccccc4Br)ccc3o2)cc1` [CBK264953], for which the viability at 28.5 h, 10 µM is 95.5%.

Turning to `O=C(O)c1cccc(NS(=O)(=O)c2ccc3c(c2)CN(C(=O)C(F)(F)F)CC3)c1` [CBK155709], the viability at 28.5 h, 10 µM was 92.2%.

`O=C1NC(=O)C(CC(=O)N2CCN(Cc3nc4ccccc4s3)CC2)S1` (stereo not shown) [CBK295654]: the viability at 28.5 h, 10 µM turned out to be 98.3%.

Take `O=c1[nH]c2ncc(-c3cncc4ccccc34)nc2n1Cc1ccccc1` [CBK065113]: the viability at 28.5 h, 10 µM worked out at 99.1%.

`COc1cccc(N2CCC(=O)N2)c1` [CBK087441]: the viability at 28.5 h, 10 µM came to 87%.

Take `O=C(N[C@H]1C[C@H]2C(=O)Nc3ccccc3C(=O)N2C1)c1cccnc1` [CBK289356]: the viability at 28.5 h, 10 µM is 110%.

`Cc1cccnc1NC(=O)c1ccc(NCCc2ccccc2)c([N+](=O)[O-])c1` [CBK269543]: the viability at 28.5 h, 10 µM was found to be 96.1%.

Regarding `O=c1ccc2cc(S(=O)(=O)Nc3ccc4[nH]ccc4c3)ccc2o1` [CBK062503], the viability at 28.5 h, 10 µM was determined as 54.8%.

In the case of `O=C(CC1C(=O)N(c2ccccc2)C(=S)N1NC(=O)c1ccccn1)Nc1ccc(Cl)cc1` (stereo not shown) [CBK266711], the viability at 28.5 h, 10 µM was determined as 92.2%.

In the case of `O=C(CSc1nc(-c2cccs2)cc(C(F)(F)F)n1)N1CCSCC1` [CBK307371], the viability at 28.5 h, 10 µM came out at 107%.

As to `NC(=O)c1ccccc1NC(=O)CN1CCN(Cc2cccc(Cl)c2)CC1` [CBK270320], the viability at 28.5 h, 10 µM was found to be 103%.

`CSc1nc2n(n1)C(C)C1=C(CCCC1=O)N2` (stereo not shown) [CBK288169]: the viability at 28.5 h, 10 µM was found to be 108%.

Take `O=C(N[C@H]1CCN2C(=O)c3cc(-c4cccs4)ccc3NC(=O)[C@@H]2C1)c1cnccn1` [CBK289559]: the viability at 28.5 h, 10 µM came out at 106%.

Turning to `Fc1ccc(-c2c[nH]c([C@@H]3COCCN3Cc3ncc[nH]3)n2)cc1` [CBK289263], the viability at 28.5 h, 10 µM was found to be 95.5%.

As to `CN(C)C(=O)COc1cccc(Nc2nc(-c3cccc4ccccc34)cn3ccnc23)c1` [CBK037393], the viability at 28.5 h, 10 µM was 82.1%.

Take `CC(C)(C)OC(=O)NNC(=S)Nc1ccc(S(N)(=O)=O)cc1` [CBK267107]: the viability at 28.5 h, 10 µM was determined as 100%.

On to `Cc1ccc2c(C)c(C(=O)Nc3sc4c(c3C(=O)NCc3ccco3)CCC4)oc2c1` [CBK267662], for which the viability at 28.5 h, 10 µM came to 99.2%.

With `CCOCN(C(=O)Cn1c(C(C)O)nc2ccccc21)c1c(C)cccc1CC` (stereo not shown) [CBK297722], the viability at 28.5 h, 10 µM is 87.6%.

With `CSc1nc(O)nc(-c2ccccc2)n1` [CBK086310], the viability at 28.5 h, 10 µM was 95.4%.

As to `Cc1nnc(S)n(Cc2ccc(F)cc2)c1=O` [CBK288502], the viability at 28.5 h, 10 µM amounted to 106%.

For `COc1ccc2c(c1)-c1c(ss/c1=N\c1ccc(S(N)(=O)=O)cc1)C(C)(C)N2` [CBK263339], the viability at 28.5 h, 10 µM is 88.7%.

`CCOC(=O)CSc1nnc(NS(=O)(=O)c2cccc(Cl)c2C)s1` [CBK004669]: the viability at 28.5 h, 10 µM is 104%.

Turning to `CC(=O)Nc1ccc(NC(=O)CC2SCCNC2=O)cc1` (stereo not shown) [CBK269921], the viability at 28.5 h, 10 µM turned out to be 89.6%.

As to `CN1CCN(C(=O)c2[nH]c3ccccc3c2NS(=O)(=O)Cc2ccccc2)CC1` [CBK050046], the viability at 28.5 h, 10 µM was determined as 93.9%.

With `Cc1ccc(SCCCn2cnc3ccccc32)cc1` [CBK267821G], the viability at 28.5 h, 10 µM was 93.7%.

On to `COc1cccc(C(=O)C2=C(O)C(=O)N(CCCn3ccnc3)C2c2cccc(F)c2)c1` (stereo not shown) [CBK266419], for which the viability at 28.5 h, 10 µM came to 107%.

With `Cn1c(CN2CCN(S(=O)(=O)c3ccccc3)CC2)nc2cc([N+](=O)[O-])ccc21` [CBK268321], the viability at 28.5 h, 10 µM worked out at 102%.

On to `CC1CCN(C(=O)C2C3CCC4(CC(=O)c5ccccc5O4)C32)CC1` (stereo not shown) [CBK284872], for which the viability at 28.5 h, 10 µM was 98.7%.

With `CC(Oc1nccnc1OCc1ccc(Cl)c(Cl)c1)c1ccncc1` (stereo not shown) [CBK161609], the viability at 28.5 h, 10 µM was 84.1%.

Take `c1ccc2sc(SCCN3CCCCC3)nc2c1` [CBK016366]: the viability at 28.5 h, 10 µM is 109%.

On to `Cc1cc(C(=O)NCc2ccnc(N3CCOCC3)c2)c(C)n1-c1cccc(Cl)c1` [CBK298301], for which the viability at 28.5 h, 10 µM amounted to 81.9%.

Consider `CN(C)CCNC(=O)c1ccc(COc2ccc(Cl)cc2Cl)cc1` [CBK265878], for which the viability at 28.5 h, 10 µM was 90.9%.

Consider `COc1ccc([C@H]2CN(Cc3ccccc3)C[C@@H]2NC(=O)c2ccco2)cc1OC` [CBK286478], for which the viability at 28.5 h, 10 µM stood at 88.4%.
